Details: in ethylbenzene

CCCCCCCCCCCCCCCCCCCCCC
Details	solubility (mole fraction)
268.67 K	0.00443
274.22 K	0.00854
277.47 K	0.0123
281.39 K	0.0202
284.43 K	0.0294
286.56 K	0.0381
289.51 K	0.0539
291.7 K	0.0702
293.53 K	0.0865
295.46 K	0.107
296.91 K	0.127
297.87 K	0.143
298.81 K	0.256
299.86 K	0.171
300.54 K	0.186
301.25 K	0.198
302.03 K	0.213
302.44 K	0.226

CCCCCCCCCCCCCCCCCCCCC
Details	solubility (mole fraction)
262.5 K	0.0047
268.03 K	0.01
275.53 K	0.026
278.56 K	0.0366
281.9 K	0.0549
284.95 K	0.0739
286.6 K	0.095
288.45 K	0.115
290 K	0.14
291.15 K	0.164
293.16 K	0.201
294.57 K	0.235
295.72 K	0.263

CCCCCCCCCCCCCCCCCCCC
Details	solubility (mole fraction)
266.52 K	0.00955
270.33 K	0.0149
272.73 K	0.0195
275.75 K	0.0265
278.21 K	0.0364
281.94 K	0.0536
282.8 K	0.0614
284.97 K	0.0791
286.15 K	0.0904
287.19 K	0.104
288.25 K	0.116
289.67 K	0.136
290.53 K	0.151
291.27 K	0.164
292.34 K	0.179
292.97 K	0.191
293.9 K	0.204

CCCCCCCCCCCCCCCCCCCCCCC
Details	solubility (mole fraction)
271.13 K	0.00366
280.09 K	0.0136
285.88 K	0.0295
288.62 K	0.0415
292.61 K	0.0698
295.02 K	0.094
297.34 K	0.124
298.77 K	0.147
300.52 K	0.173
300.9 K	0.184

CCCCCCCCCCCCCCCCCCCCCCCC
Details	solubility (mole fraction)
272.02 K	0.00269
279.76 K	0.00689
285.62 K	0.0142
289.1 K	0.0224
292.74 K	0.0346
296 K	0.0511
299.02 K	0.0732
301.52 K	0.0997
303.08 K	0.117
304.88 K	0.144
306.15 K	0.163

Reference: BigSolDB 2.1
